Columns and labels:
Assay type in all cases: cell-based
Microsporum canis = assay: Antifungal activity in vitro, resazurin growth inhibition: Microsporum canis (B68128)
Experimental: (§1) The standard susceptibility screen is performed in 96-well plates (U-bottom, Greiner Bio-One). Serial dilutions (2-fold or 4-fold) of 20 mM compound stock solutions are made in 100% DMSO, followed by an intermediate dilution step in water. These serial dilutions (10 μl) are then spotted onto test-plates that can be stored in the dark at 4° C. for a maximum period of 2 weeks. An adequate broad dose-range is included with 64 μM as the highest in-test concentration. The culture medium RPMI-1640 is supplemented with L-glutamine, 2% glucose and buffered with 3-(N-morpholino)-propanesulfonic acid (MOPS) at pH 7.0±0.1.
(§2) The different fungal species/isolates (Table 3a) are cryopreserved and 1/1000 diluted in medium just prior to use. A standard inoculum of 200 μl containing 10^3 colony-forming unit (cfu) is then added to each well. A positive control (100% growth=fungal culture without antifungal) and a negative control (0% growth ═RPMI-MOPS medium) are included on each plate. Optimal incubation time and temperature are dependent on the fungal species and vary from 24 h for yeasts (37° C.) to one week or more for dermatophytes (27° C.). Inhibition of fungal growth is measured after adding 10 μl of 0.005% (w/v) resazurin (Sigma Aldrich) to each well, based on the principle that living cells convert the non-fluorescent blue resazurin into the pink and fluorescent resorufin, allowing fluorimetric reading (λex 550 nm and λem 590 nm) after an additional incubation period (‘resa’ time mentioned in Table 3a).

Sporothrix schenkii = assay: Antifungal activity in vitro, resazurin growth inhibition: Sporothrix schenkii (B62482)
Experimental: as §1, §2

Aspergillus fumigatus = assay: Antifungal activity in vitro, resazurin growth inhibition: Aspergillus fumigatus (B42928)
Experimental: as §1, §2

[1] = tested on: Trichophyton mentagrophytes; assay: Antifungal activity in vitro, resazurin growth inhibition: Trichophyton mentagrophytes (B70554)
Experimental: as §1, §2

Candida parapsilosis = assay: Antifungal activity in vitro, resazurin growth inhibition: Candida parapsilosis (B66126)
Experimental: as §1, §2

Trichophyton rubrum = assay: Antifungal activity in vitro, resazurin growth inhibition: Trichophyton rubrum (B68183)
Experimental: as §1, §2

Cryptococcus neoformans = assay: Antifungal activity in vitro, resazurin growth inhibition: Cryptococcus neoformans (B66663)
Experimental: as §1, §2

Compound	Inf. B: Microsporum canis B68128, pIC50 (Microsporum canis)	Inf. A: Sporothrix schenkii B62482, pIC50 (Sporothrix schenkii)	Inf. E: Aspergillus fumigatus B42928, pIC50 (Aspergillus fumigatus)	Inf. G: Trichophyton mentagrophytes B70554, pIC50 [1]	Inf. D: Candida parapsilosis B66126, pIC50 (Candida parapsilosis)	Inf. C: Trichophyton rubrum B68183, pIC50 (Trichophyton rubrum)	Inf. F: Cryptococcus neoformans B66663, pIC50 (Cryptococcus neoformans)
CCn1cc(C2=NCc3cc(Cl)cc(Cl)c3-n3cccc32)cn1 [Compound 62]	4.59	4.51	4.70	4.86	4.23	5.22	5.15
CCc1ccc(C2NCc3c(Cl)cccc3-n3cccc32)cn1.Cl (racemic) [Compound 14]	5.30	<4.19	<4.19	4.74	<4.19	5.30	4.28
CCc1cnc(C2=NCc3c(Cl)cc(Cl)cc3-n3cccc32)s1 [Compound 67]	4.50	<4.19	<4.19	<4.19	<4.19	4.71	<4.19
Cl.Clc1ccc2oc(C3NCc4c(Cl)cccc4-n4cccc43)cc2c1 (racemic) [Compound 35]	5.70	<4.19	<4.19	5.70	<4.19	6.07	<4.19
Cc1ccc(Cl)c2c1-n1cccc1C(c1cnc(C(F)(F)F)nc1)NC2.Cl (racemic) [Compound 27]	<4.90	<4.90	<4.90	<4.90	<4.90	<4.90	<4.90
Cc1cccc(C2NCc3c(Cl)cccc3-n3cccc32)n1 (racemic) [Compound 12]	<4.49	4.59	<4.49	<4.49	<4.49	4.92	4.82
Clc1cc2oc(C3=NCc4c(Cl)cccc4-n4cccc43)cc2cn1 [Compound 159]	6.41	<4.49	<4.49	<4.49	<4.49	6.46	<4.49
COc1ccc2oc(C3NCc4ccc(Cl)cc4-n4cccc43)cc2c1.Cl (racemic) [Compound 45]	5.32	4.80	<4.19	<4.19	<4.19	5.09	4.62
Cc1cccc2oc(C3NCc4c(Cl)cccc4-n4cccc43)cc12.Cl (racemic) [Compound 36]	5.19	<4.19	<4.19	5.21	<4.19	5.10	<4.19
Cc1cc(C2=NCc3c(Cl)cccc3-n3cccc32)ccn1 [Compound 96]	4.80	<4.19	4.40	5.00	<4.19	5.10	<4.19
COc1ccc2oc(C3NCc4c(Cl)cccc4-n4cccc43)cc2c1.Cl (racemic) [Compound 44]	5.31	<4.19	<4.19	4.77	<4.19	5.20	<4.19
COc1cccc2cc(C3NCc4c(Cl)cc(Cl)cc4-n4cccc43)oc12.Cl (racemic) [Compound 43]	4.52	<4.19	<4.19	<4.19	<4.19	4.30	<4.19
Cc1cccc2oc(C3=NCc4c(Cl)cccc4-n4cccc43)cc12 [Compound 132]	4.59	<4.49	<4.49	<4.49	<4.49	5.54	<4.49
Cc1ccc2cc(C3=NCc4c(F)cc(F)cc4-n4cccc43)ccc2n1 [Compound 114]	<4.19	<4.19	<4.19	<4.19	<4.19	5.75	<4.19
CCc1nc(C2=NCc3c(Cl)cc(Cl)cc3-n3cccc32)cs1 [Compound 65]	4.72	4.56	<4.19	5.48	<4.19	5.19	5.06
Cl.Clc1cccc2c1CN=C(c1nc3ccccc3s1)c1cccn1-2 [Compound 181]	5.69	<4.19	<4.19	4.98	<4.19	5.94	<4.19
Cn1ccc2cc(C3=NCc4c(Cl)cccc4-n4cccc43)ccc21 [Compound 106]	5.79	4.90	5.05	5.51	5.09	6.18	5.26
Clc1cccc2c1CN=C(c1ccc3nsnc3c1)c1cccn1-2 [Compound 194]	<4.19	<4.19	<4.19	6.06	<4.19	6.82	<4.19
Cc1nc(Cl)cc2cc(C3=NCc4c(Cl)cccc4-n4cccc43)oc12 [Compound 160]	5.03	<4.49	5.85	5.48	<4.49	5.84	5.61
Cl.Fc1cccc2c1CNC(c1ccc(C(F)(F)F)nc1)c1cccn1-2 (racemic) [Compound 17]	4.46	<4.19	<4.19	<4.19	<4.19	4.71	4.23
COc1ccc2oc(C3=NCc4c(Cl)cc(Cl)cc4-n4cccc43)cc2c1 [Compound 148]	5.82	<4.19	<4.19	4.19	<4.19	5.04	<4.19
Fc1cccc2c1CN=C(c1ccc3occ(Cl)c3c1)c1cccn1-2 [Compound 153]	<4.19	<4.19	<4.19	<4.19	5.00	<4.19	5.16
